Each structure is given as a SMILES string.

Experimental findings from article PMC4015282, “Transcriptional comparison of the filamentous fungus Neurospora crassa growing on three major monosaccharides D-glucose, D-xylose and L-arabinose” (Biotechnology for Biofuels, 2014) are described below.

What all share (format): cell-based
Conditions in all cases: 3 mM sugar; labelled compound

The target in test [1] is T1, GLT-1 (NCU01633) (Neurospora crassa, UniProt Q1K4S3).
T1 construct: cDNA cloned in pRS426 shuttle vector (PGK1 promoter, GFP ORF, CYC1 terminator)
T1 sequence (Q1K4S3 1-532): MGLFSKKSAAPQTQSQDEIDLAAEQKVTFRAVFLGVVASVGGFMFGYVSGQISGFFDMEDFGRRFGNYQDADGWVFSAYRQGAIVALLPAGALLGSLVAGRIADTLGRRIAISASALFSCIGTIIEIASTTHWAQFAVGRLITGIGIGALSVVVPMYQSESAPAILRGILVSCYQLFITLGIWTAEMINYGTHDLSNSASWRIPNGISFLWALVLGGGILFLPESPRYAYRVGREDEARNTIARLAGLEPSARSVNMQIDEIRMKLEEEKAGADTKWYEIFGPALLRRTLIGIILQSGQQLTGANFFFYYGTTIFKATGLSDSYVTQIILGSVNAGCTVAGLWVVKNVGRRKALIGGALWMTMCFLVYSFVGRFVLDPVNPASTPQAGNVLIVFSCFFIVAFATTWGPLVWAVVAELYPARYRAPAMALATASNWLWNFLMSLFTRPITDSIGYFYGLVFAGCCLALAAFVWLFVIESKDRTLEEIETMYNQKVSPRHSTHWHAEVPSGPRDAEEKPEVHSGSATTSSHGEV
In words: radiolabelled sugar uptake in recombinant yeast, […] min; growth complementation.

Test [2] deals with T2, LAT-1 (NCU02188) (Neurospora crassa, UniProt Q7S4D2).
T2 construct: expressed from pRS426-type vector in hexose-transporter-null S. cerevisiae EBY.VW4000
T2 sequence (Q7S4D2 1-518): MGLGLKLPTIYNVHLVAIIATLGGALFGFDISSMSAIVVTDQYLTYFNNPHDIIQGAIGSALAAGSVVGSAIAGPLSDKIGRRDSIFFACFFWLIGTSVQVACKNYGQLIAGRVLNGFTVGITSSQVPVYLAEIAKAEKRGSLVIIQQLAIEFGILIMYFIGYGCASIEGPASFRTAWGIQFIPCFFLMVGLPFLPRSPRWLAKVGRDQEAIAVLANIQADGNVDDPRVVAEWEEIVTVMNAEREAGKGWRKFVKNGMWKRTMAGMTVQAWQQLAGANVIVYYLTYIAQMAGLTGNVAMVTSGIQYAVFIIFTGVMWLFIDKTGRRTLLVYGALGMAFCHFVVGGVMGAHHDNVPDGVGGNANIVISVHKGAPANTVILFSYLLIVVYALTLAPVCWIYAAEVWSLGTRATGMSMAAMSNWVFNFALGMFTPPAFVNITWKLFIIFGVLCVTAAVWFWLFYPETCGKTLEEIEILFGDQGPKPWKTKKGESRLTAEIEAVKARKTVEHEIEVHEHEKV
Described as above.

Test [3] concerns the target T2, LAT-1 (NCU02188). In words: radiolabelled sugar uptake in recombinant yeast, […] min.
Test [4] deals with T1, GLT-1 (NCU01633). Described as above.

As for `OC[C@H]1OC(O)[C@H](O)[C@@H](O)[C@@H]1O` (stereo partly drawn) [D-glucose], the “radiolabelled sugar uptake in recombinant yeast, 2 min; growth complementation” value on GLT-1 (NCU01633) [1] is “D-glucose uptake was two orders of magnitude higher compared to that of D-xylose”; at LAT-1 (NCU02188) [2], “does complement growth of EBY.VW4000 strain on D-glucose, indicating this protein can transport D-glucose”.

Take `OC1OC[C@H](O)[C@H](O)[C@H]1O` (stereo partly drawn) [L-arabinose]: on LAT-1 (NCU02188) [3], the “radiolabelled sugar uptake in recombinant yeast, 2 min” value was “the L-arabinose uptake rate was much higher than that of D-glucose”.

As for `OC1OC[C@@H](O)[C@H](O)[C@H]1O` (stereo partly drawn) [D-xylose], the “radiolabelled sugar uptake in recombinant yeast, 2 min” value on GLT-1 (NCU01633) [4] is on record as “D-glucose uptake was two orders of magnitude higher compared to that of D-xylose”.
